Source: PubChem BioAssay AID2060611 (Molecular Pharmacology Branch, DTP, NCI, 2025)
pIC50: −log10 of the molar value.

System: 628569-122-R-J1-PDC complex spheroid viability
Assay: Anticancer human tumor 628569-122-R-J1-PDC patient-derived head and neck squamous carcinoma cell line growth inhibition [CLK]
Settings: for pIC50: curve of first compound; for viability, T/C: stronger effect = lower value
Outline: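 Multi-cell-type spheroids combined patient-derived tumor cells with HUVEC endothelial cells and human mesenchymal stem cells. Paired agents were dosed in half-log steps down from about clinical Cmax, or from 10 microM where Cmax was unknown.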

[1] = second compound 0.0316 µM, first compound 0.0316 µM
[2] = second compound 0.0316 µM, first compound 0.1 µM
[3] = second compound 0.0316 µM, first compound 0.316 µM
[4] = second compound 0.0316 µM, first compound 1 µM
[5] = second compound 0.0316 µM, first compound 3.16 µM
[6] = second compound 0.0316 µM, first compound 10 µM
[7] = second compound 0.1 µM, first compound 0.0316 µM
[8] = second compound 0.1 µM, first compound 0.1 µM
[9] = second compound 0.1 µM, first compound 0.316 µM
[10] = second compound 0.1 µM, first compound 1 µM
[11] = second compound 0.1 µM, first compound 3.16 µM
[12] = second compound 0.1 µM, first compound 10 µM
[13] = second compound 0.316 µM, first compound 0.0316 µM
[14] = second compound 0.316 µM, first compound 0.1 µM
[15] = second compound 0.316 µM, first compound 0.316 µM
[16] = second compound 0.316 µM, first compound 1 µM
[17] = second compound 0.316 µM, first compound 3.16 µM
[18] = second compound 0.316 µM, first compound 10 µM
[19] = second compound 1 µM, first compound 0.0316 µM
[20] = second compound 1 µM, first compound 0.1 µM
[21] = second compound 1 µM, first compound 0.316 µM
[22] = second compound 1 µM, first compound 1 µM
[23] = second compound 1 µM, first compound 3.16 µM
[24] = second compound 1 µM, first compound 10 µM
[25] = second compound 3.16 µM, first compound 0.0316 µM
[26] = second compound 3.16 µM, first compound 0.1 µM
[27] = second compound 3.16 µM, first compound 0.316 µM
[28] = second compound 3.16 µM, first compound 1 µM
[29] = second compound 3.16 µM, first compound 3.16 µM
[30] = second compound 3.16 µM, first compound 10 µM
[31] = second compound 10 µM, first compound 0.0316 µM
[32] = second compound 10 µM, first compound 0.1 µM
[33] = second compound 10 µM, first compound 0.316 µM
[34] = second compound 10 µM, first compound 1 µM
[35] = second compound 10 µM, first compound 3.16 µM
[36] = second compound 10 µM, first compound 10 µM
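Note: spheroids exposed to agents for seven days before readout.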
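Throughout, for viability, T/C: 100% = DMSO vehicle control viability.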

CC(CO)NC(=O)c1cc(-c2ccc(Cl)cc2)nn(-c2cnn(C)c2)c1=O (centres undefined) + CN1CCN(c2cc(C(=O)Nc3cc4cc(-c5cnn(C)c5)ccc4cn3)ccn2)CC1
pIC50 (second compound 0.0316 µM): < 5.00 | pIC50 (second compound 0.1 µM): < 5.00 | pIC50 (second compound 0.316 µM): < 5.00 | pIC50 (second compound 1 µM): > 7.50 | pIC50 (second compound 3.16 µM): > 7.50 | pIC50 (second compound 10 µM): > 7.50 | viability, T/C [1]: 141% | viability, T/C [2]: 195% | viability, T/C [3]: 196% | viability, T/C [4]: 216% | viability, T/C [5]: 205% | viability, T/C [6]: 173% | viability, T/C [7]: 113% | viability, T/C [8]: 142% | viability, T/C [9]: 151% | viability, T/C [10]: 152% | viability, T/C [11]: 152% | viability, T/C [12]: 148% | viability, T/C [13]: 62.6% | viability, T/C [14]: 63.5% | viability, T/C [15]: 68.9% | viability, T/C [16]: 77.1% | viability, T/C [17]: 73% | viability, T/C [18]: 76.2% | viability, T/C [19]: 8.6% | viability, T/C [20]: 5.35% | viability, T/C [21]: 7.74% | viability, T/C [22]: 6.71% | viability, T/C [23]: 4.91% | viability, T/C [24]: 5.72% | viability, T/C [25]: 7.85% | viability, T/C [26]: 5.72% | viability, T/C [27]: 7.76% | viability, T/C [28]: 7.17% | viability, T/C [29]: 7.12% | viability, T/C [30]: 7.82% | viability, T/C [31]: 4.35% | viability, T/C [32]: 2.99% | viability, T/C [33]: 3.66% | viability, T/C [34]: 2.79% | viability, T/C [35]: 4.67% | viability, T/C [36]: 2.07%

CC(CO)NC(=O)c1cc(-c2ccc(Cl)cc2)nn(-c2cnn(C)c2)c1=O (centres undefined) + CNC(=O)c1ccc(Nc2nc(OC3CCCC3)c3c(-c4ccc5nc(C)oc5c4)c[nH]c3n2)c(OC)c1
pIC50 (second compound 0.0316 µM): < 5.00 | pIC50 (second compound 0.1 µM): < 5.00 | pIC50 (second compound 0.316 µM): < 5.00 | pIC50 (second compound 1 µM): < 5.00 | pIC50 (second compound 3.16 µM): < 5.00 | pIC50 (second compound 10 µM): < 5.00 | viability, T/C [1]: 135% | viability, T/C [2]: 176% | viability, T/C [3]: 214% | viability, T/C [4]: 189% | viability, T/C [5]: 192% | viability, T/C [6]: 169% | viability, T/C [7]: 91.4% | viability, T/C [8]: 87.9% | viability, T/C [9]: 100% | viability, T/C [10]: 125% | viability, T/C [11]: 138% | viability, T/C [12]: 124% | viability, T/C [13]: 66.2% | viability, T/C [14]: 82.6% | viability, T/C [15]: 100% | viability, T/C [16]: 104% | viability, T/C [17]: 150% | viability, T/C [18]: 97.4% | viability, T/C [19]: 64.7% | viability, T/C [20]: 68.7% | viability, T/C [21]: 79.4% | viability, T/C [22]: 89.6% | viability, T/C [23]: 84.9% | viability, T/C [24]: 81.6% | viability, T/C [25]: 70.8% | viability, T/C [26]: 66.2% | viability, T/C [27]: 81% | viability, T/C [28]: 77.6% | viability, T/C [29]: 90% | viability, T/C [30]: 82.4% | viability, T/C [31]: 70% | viability, T/C [32]: 59.4% | viability, T/C [33]: 76.1% | viability, T/C [34]: 93.1% | viability, T/C [35]: 90.8% | viability, T/C [36]: 79.3%
